Results reported in patent US20180148418A1, “AMIDO-SUBSTITUTED CYCLOHEXANE DERIVATIVES” (Bayer Pharma Aktiengesellschaft, priority 2015, published 2018).
pIC50: −log10 of the molar value.

Key:
[1] = molecular target: T1, TNKS1 (Homo sapiens, UniProt O95271); assay: TNKS1 Assay B (auto-parsylation, [3H]-NAD+ SPA); format: biochemical; settings: 6 nM TNKS1, auto-parsylation, over night at room temperature
T1 construct: purchased BPS Bioscience, San Diego, USA 80579 (TNKS1 Histone Ribosylation Assay Kit)
T1 sequence (O95271 1-1327): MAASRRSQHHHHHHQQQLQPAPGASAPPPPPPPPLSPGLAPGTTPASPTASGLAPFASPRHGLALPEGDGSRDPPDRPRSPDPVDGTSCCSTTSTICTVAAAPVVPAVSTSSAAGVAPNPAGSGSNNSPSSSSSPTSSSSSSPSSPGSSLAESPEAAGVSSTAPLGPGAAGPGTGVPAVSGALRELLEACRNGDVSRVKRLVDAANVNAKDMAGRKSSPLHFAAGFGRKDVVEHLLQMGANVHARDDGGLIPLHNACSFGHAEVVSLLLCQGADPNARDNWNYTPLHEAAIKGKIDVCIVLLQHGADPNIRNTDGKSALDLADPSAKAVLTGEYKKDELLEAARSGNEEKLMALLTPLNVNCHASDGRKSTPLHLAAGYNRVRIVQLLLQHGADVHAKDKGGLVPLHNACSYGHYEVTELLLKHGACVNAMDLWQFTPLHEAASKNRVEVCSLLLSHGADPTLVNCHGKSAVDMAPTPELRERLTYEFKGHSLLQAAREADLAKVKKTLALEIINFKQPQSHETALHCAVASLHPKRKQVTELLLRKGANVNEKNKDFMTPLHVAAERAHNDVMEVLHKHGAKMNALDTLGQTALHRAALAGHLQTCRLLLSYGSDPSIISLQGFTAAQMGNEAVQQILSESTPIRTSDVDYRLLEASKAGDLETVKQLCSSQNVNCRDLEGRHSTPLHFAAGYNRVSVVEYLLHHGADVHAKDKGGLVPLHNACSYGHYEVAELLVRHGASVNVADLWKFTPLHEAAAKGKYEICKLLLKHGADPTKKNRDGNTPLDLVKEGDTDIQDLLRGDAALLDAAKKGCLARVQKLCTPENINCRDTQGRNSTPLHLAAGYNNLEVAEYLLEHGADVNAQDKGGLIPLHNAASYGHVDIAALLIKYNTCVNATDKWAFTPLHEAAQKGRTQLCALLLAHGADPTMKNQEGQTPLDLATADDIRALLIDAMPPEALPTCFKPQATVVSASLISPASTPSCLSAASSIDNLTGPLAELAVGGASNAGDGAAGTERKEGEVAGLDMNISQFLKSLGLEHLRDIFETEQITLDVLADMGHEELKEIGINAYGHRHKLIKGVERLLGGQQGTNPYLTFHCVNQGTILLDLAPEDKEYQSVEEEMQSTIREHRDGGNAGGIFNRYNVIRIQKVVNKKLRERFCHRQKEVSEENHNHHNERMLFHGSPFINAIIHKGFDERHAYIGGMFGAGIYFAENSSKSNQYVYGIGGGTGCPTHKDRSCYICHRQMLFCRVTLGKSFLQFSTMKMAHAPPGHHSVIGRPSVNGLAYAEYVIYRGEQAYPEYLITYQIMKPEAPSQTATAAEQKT

[2] = test system: HEK293 cells cotransfected with the FOP control vector; assay: HEK293 FOP assay (control reporter with non-functional TCF elements); format: cell-based; settings: 16 hours
In short: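 Stable HEK293 line carrying FOP control reporter (randomized non-functional TCF sites, with pcDNA3), Geneticin-selected, plated 24 h before assay. Stimulated with recombinant human Wnt-3a (2500-5 ng/ml) and compounds 50 μM–15 nM (3.16-fold steps) in CAFTY buffer pH 7.4 with 2 mM Ca2+, 0.01% BSA, run parallel to TOP line.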

| pIC50 [1] | Compound | pIC50 ([2]; Homo sapiens) | pIC50 [2] |
| --- | --- | --- | --- |
| 8.13 | O=C(N[C@H]1CC[C@@]2(CCN(c3ccc(F)cc3Cl)C2=O)CC1)c1[nH]cnc1C(=O)N1CC(F)C1 [Example 166, N-[(trans)-2-(2-chloro-4-fluorophenyl)-1-oxo-2-azaspiro[4.5]dec-8-yl]-4-[(3-fluoroazetidin-1-yl)carbonyl]-1H-imidazole-5-carboxamide] | ≤ 4.30 |  |
| 6.62 | Cc1cc(NC(=O)C23CCC(NC(=O)c4cnc5cccnn45)(CC2)CC3)c(Cl)cc1F [Example 122, N-{4-[(2-chloro-4-fluoro-5-methylphenyl)carbamoyl]bicyclo[2.2.2]oct-1-yl}imidazo[1,2-b]pyridazine-3-carboxamide] | ≤ 4.30 |  |
| 8.00 | CNC(=O)c1nc[nH]c1C(=O)N[C@H]1CC[C@H](C(=O)Nc2cc(F)c(F)cc2Cl)CC1 [Example 3, N^5-{trans-4-[(2-chloro-4,5-difluorophenyl)carbamoyl]cyclohexyl}-N^4-methyl-1H-imidazole-4,5-dicarboxamide] | ≤ 4.30 |  |
| 7.27 | COC(C)(C)CNC(=O)c1nc[nH]c1C(=O)N[C@H]1CC[C@H](C(=O)Nc2cnccc2Cl)CC1 [Example 98, N^5-{trans-4-[(4-chloropyridin-3-yl)carbamoyl]cyclohexyl}-N^4-(2-methoxy-2-methylpropyl)-1H-imidazole-4,5-dicarboxamide] | ≤ 4.30 |  |
| 6.72 | COC(C)(C)CNC(=O)c1nc[nH]c1C(=O)N[C@H]1CC[C@H](C(=O)Nc2cc(C(F)(F)F)ccc2Cl)CC1 [Example 144, N^5-(trans-4-{[2-chloro-5-(trifluoromethyl)phenyl]carbamoyl}cyclohexyl)-N^4-(2-methoxy-2-methylpropyl)-1H-imidazole-4,5-dicarboxamide] | 4.60 |  |
| 6.35 | CNC(=O)c1nc[nH]c1C(=O)N[C@H]1CC[C@H](C(=O)N(CCO)c2ccc(F)cc2Cl)CC1 [Example 157, N^5-{trans-4-[(2-chloro-4-fluorophenyl)(2-hydroxyethyl)carbamoyl]cyclohexyl}-N^4-methyl-1H-imidazole-4,5-dicarboxamide] | ≤ 4.30 |  |
| 7.89 | COCCNC(=O)c1nc[nH]c1C(=O)N[C@H]1CC[C@@]2(CCN(c3ccc(F)cc3Cl)C2=O)CC1 [Example 163, N^5-[(trans)-2-(2-chloro-4-fluorophenyl)-1-oxo-2-azaspiro[4.5]dec-8-yl]-N^4-(2-methoxyethyl)-1H-imidazole-4,5-dicarboxamide] | ≤ 4.30 |  |
| 6.80 | COC(C)(C)CNC(=O)c1nc[nH]c1C(=O)N[C@H]1CC[C@H](C(=O)Nc2cc(C)c(F)cc2Cl)CC1 [Example 101, N^5-{trans-4-[(2-chloro-4-fluoro-5-methylphenyl)carbamoyl]cyclohexyl}-N^4-(2-methoxy-2-methylpropyl)-1H-imidazole-4,5-dicarboxamide] | 4.46 |  |
| 6.85 | CN(c1ccc(F)cc1Cl)C(=O)[C@H]1CC[C@H](NC(=O)c2cnn3cccnc23)CC1 [Example 155, N-{trans-4-[(2-chloro-4-fluorophenyl)(methyl)carbamoyl]cyclohexyl}pyrazolo[1,5-a]pyrimidine-3-carboxamide] | ≤ 4.30 |  |
| 6.92 | O=C(N[C@H]1CC[C@H](C(=O)Nc2ccc(F)cc2Cl)CC1)c1cnn2ccc(N3CCOCC3)nc12 [Example 107, N-{trans-4-[(2-chloro-4-fluorophenyl)carbamoyl]cyclohexyl}-5-(morpholin-4-yl)pyrazolo[1,5-a]pyrimidine-3-carboxamide] | ≤ 4.30 |  |
| 6.28 | COCc1cc(C)nc2c(C(=O)N[C@H]3CC[C@H](C(=O)Nc4ccc(F)cc4Cl)CC3)cnn12 [Example 111, N-{trans-4-[(2-chloro-4-fluorophenyl)carbamoyl]cyclohexyl}-7-(methoxymethyl)-5-methylpyrazolo[1,5-a]pyrimidine-3-carboxamide] | ≤ 4.30 |  |
| 6.85 | O=C(N[C@H]1CC[C@H](C(=O)Nc2c(F)cc(F)cc2Cl)CC1)c1cnc2cccnn12 [Example 133, N-{trans-4-[(2-chloro-4,6-difluorophenyl)carbamoyl]cyclohexyl}imidazo[1,2-b]pyridazine-3-carboxamide] | ≤ 4.30 |  |
| 7.92 | CNC(=O)c1[nH]cnc1C(=O)N[C@H]1CC[C@@]2(CCN(c3ccc(F)cc3Cl)C2=O)CC1 [Example 140, N^4-[(trans)-2-(2-chloro-4-fluorophenyl)-1-oxo-2-azaspiro[4.5]dec-8-yl]-N^5-methyl-1H-imidazole-4,5-dicarboxamide] | ≤ 4.30 |  |
| 7.13 | Cc1cc(C)n2ncc(C(=O)N[C@H]3CC[C@H](C(=O)Nc4cc(F)c(F)cc4Cl)CC3)c2n1 [Example 134, N-{trans-4-[(2-chloro-4,5-difluorophenyl)carbamoyl]cyclohexyl}-5,7-dimethylpyrazolo[1,5-a]pyrimidine-3-carboxamide] | ≤ 4.30 |  |
| 7.28 | O=C(N[C@H]1CC[C@H](C(=O)Nc2ccc(F)cc2Cl)CC1)c1cnn2ccc(N3CCCC3)nc12 [Example 108] | ≤ 4.30 |  |
| 7.09 | Cc1cc(C)n2ncc(C(=O)NC34CCC(C(=O)Nc5cc(C)c(F)cc5Cl)(CC3)CC4)c2n1 [Example 126, N-{4-[(2-chloro-4-fluoro-5-methylphenyl)carbamoyl]bicyclo[2.2.2]oct-1-yl}-5,7-dimethylpyrazolo[1,5-a]pyrimidine-3-carboxamide] | ≤ 4.30 |  |
| 6.74 | Cc1cc(NC(=O)[C@H]2CC[C@H](NC(=O)c3[nH]cnc3C(=O)NCC(C)(C)O)CC2)c(Cl)cc1F [Example 100, N^5-{trans-4-[(2-chloro-4-fluoro-5-methylphenyl)carbamoyl]cyclohexyl}-N^4-(2-hydroxy-2-methylpropyl)-1H-imidazole-4,5-dicarboxamide] | 4.41 |  |
| 5.62 | O=C(NCC(F)(F)F)c1nc[nH]c1C(=O)N[C@H]1CC[C@H](C(=O)Nc2cc(N3CCOCC3)ccc2Cl)CC1 [Example 95, N^5-(trans-4-{[2-chloro-5-(morpholin-4-yl)phenyl]carbamoyl}cyclohexyl)-N^4-(2,2,2-trifluoroethyl)-1H-imidazole-4,5-dicarboxamide] | 4.41 |  |
| 6.48 | CC(C)(O)CNC(=O)c1nc[nH]c1C(=O)N[C@H]1CC[C@H](C(=O)Nc2cc(C(F)(F)F)ccc2Cl)CC1 [Example 145, N^5-(trans-4-{[2-chloro-5-(trifluoromethyl)phenyl]carbamoyl}cyclohexyl)-N^4-(2-hydroxy-2-methylpropyl)-1H-imidazole-4,5-dicarboxamide] | 4.82 |  |
| 7.47 | O=C(N[C@H]1CC[C@H](C(=O)Nc2cc(F)c(F)cc2Cl)CC1)c1cnn2cccnc12 [Example 130, N-{trans-4-[(2-chloro-4,5-difluorophenyl)carbamoyl]cyclohexyl}pyrazolo[1,5-a]pyrimidine-3-carboxamide] | ≤ 4.30 |  |

| Compound | pIC50 [1] | pIC50 ([2]; Homo sapiens) | pIC50 [2] |
| --- | --- | --- | --- |
| Cc1c(C(C)N(C)C)cnc2c(C(=O)N[C@H]3CC[C@H](C(=O)Nc4ccc(F)cc4Cl)CC3)cnn12 (single isomer, unassigned) [Example 57, N-{trans-4-[(2-chloro-4-fluorophenyl)carbamoyl]cyclohexyl}-6-[1-(dimethylamino)ethyl]-7-methylpyrazolo[1,5-a]pyrimidine-3-carboxamide] | 6.36 |  | ≤ 4.30 |
